Experiments:
Assay in all cases: Test E greenhouse herbicide test, pre- and postemergence
Format in all cases: in vivo
[1] = test system: Italian ryegrass (Lolium multiflorum)
In short: (§1)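 Scores (0–100, visual, vs controls) reflect greenhouse growth of 14 to 21 d after treatment. Application was pre-emergence to silt loam or post-emergence at the 1- to 4-leaf stage.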

[2] = test system: arrowleaf sida (Sida rhombifolia)
In short: as §1

[3] = test system: beggarticks (hairy beggarticks, Bidens pilosa)
In short: as §1

corn (Zea mays) = test system: corn (Zea mays)
In short: as §1

[4] = test system: crabgrass, large (large crabgrass, Digitaria sanguinalis); details: Preemergence
In short: as §1

[5] = test system: field bindweed (Convolvulus arvensis)
In short: as §1

[6] = test system: foxtail, giant (giant foxtail, Setaria faberii); details: Preemergence
In short: as §1

[7] = test system: foxtail, green (green foxtail, Setaria viridis); details: Preemergence
In short: as §1

[8] = test system: horseweed (Conyza canadensis)
In short: as §1

[9] = test system: lambsquarters (Chenopodium album); details: Preemergence
In short: as §1

[10] = test system: momingglory (Ipomoea coccinea); details: Preemergence
In short: as §1

[11] = test system: panicum, fall (fall panicum, Panicum dichotomiflorum)
In short: as §1

[12] = test system: ragweed (common ragweed, Ambrosia elatior)
In short: as §1

[13] = test system: sandbur (southem sandbur, Cenchrus echinatus)
In short: as §1

[14] = test system: velvetleaf (Abutilon theophrasti); details: Preemergence
In short: as §1

[15] = 62 g ai/ha, Postemergence, scale 0 to 100 (0 no effect, 100 complete control)
[16] = 62 g ai/ha, Preemergence, scale 0 to 100 (0 no effect, 100 complete control)
[17] = 125 g ai/ha, Postemergence, scale 0 to 100 (0 no effect, 100 complete control)
[18] = 125 g ai/ha, Preemergence, scale 0 to 100 (0 no effect, 100 complete control)
[19] = 250 g ai/ha, Postemergence, scale 0 to 100 (0 no effect, 100 complete control)
[20] = Postemergence, 31 g ai/ha, visual, scale 0 no effect to 100 complete control
[21] = Preemergence, 31 g ai/ha, scale 0 to 100, 0 no effect, 100 complete control
[22] = Preemergence, 250 g ai/ha, visual, scale 0 no effect to 100 complete control
[23] = Preemergence, 125 g ai/ha, visual, scale 0 no effect to 100 complete control
[24] = 62 g ai/ha, scale 0 to 100 (0 no effect, 100 complete control)
[25] = 31 g ai/ha, scale 0 to 100, 0 no effect, 100 complete control
[26] = 125 g ai/ha, visual, scale 0 no effect to 100 complete control
[27] = 250 g ai/ha, visual, scale 0 no effect to 100 complete control
[28] = 125 g ai/ha, scale 0 to 100 (0 no effect, 100 complete control)

Cn1nc(Br)c(O)c(-c2cccc3ccccc23)c1=O [Compound 20]
Plant response rating, Ryegrass, Italian [1, 15]: 50 | Plant response rating, Ryegrass, Italian [1, 16]: 95 | Plant response rating, Ryegrass, Italian [1, 17]: 70 | Plant response rating, Ryegrass, Italian [1, 18]: 98 | Plant response rating, Ryegrass, Italian [1, 19]: 80 | Plant response rating, Ryegrass, Italian [1, 20]: 40 | Plant response rating, Ryegrass, Italian [1, 21]: 90 | Plant response rating, Ryegrass, Italian [1, 22]: 100 | Plant response rating, Arrowleaf Sida [2, 15]: 60 | Plant response rating, Arrowleaf Sida [2, 16]: 70 | Plant response rating, Arrowleaf Sida [2, 17]: 70 | Plant response rating, Arrowleaf Sida [2, 19]: 80 | Plant response rating, Arrowleaf Sida [2, 20]: 40 | Plant response rating, Arrowleaf Sida [2, 21]: 0 | Plant response rating, Arrowleaf Sida [2, 23]: 85 | Plant response rating, Arrowleaf Sida [2, 22]: 95 | Plant response rating, Beggarticks [3, 15]: 95 | Plant response rating, Beggarticks [3, 16]: 85 | Plant response rating, Beggarticks [3, 17]: 98 | Plant response rating, Beggarticks [3, 19]: 100 | Plant response rating, Beggarticks [3, 20]: 85 | Plant response rating, Beggarticks [3, 21]: 20 | Plant response rating, Beggarticks [3, 23]: 95 | Plant response rating, Beggarticks [3, 22]: 98 | Plant response rating, Corn (corn (Zea mays); [15]): 0 | Plant response rating, Corn (corn (Zea mays); [16]): 0 | Plant response rating, Corn (corn (Zea mays); [17]): 0 | Plant response rating, Corn (corn (Zea mays); [19]): 15 | Plant response rating, Corn (corn (Zea mays); [20]): 0 | Plant response rating, Corn (corn (Zea mays); [21]): 0 | Plant response rating, Corn (corn (Zea mays); [23]): 0 | Plant response rating, Corn (corn (Zea mays); [22]): 0 | Plant response rating, Crabgrass, Large [4, 24]: 35 | Plant response rating, Crabgrass, Large [4, 25]: 30 | Plant response rating, Crabgrass, Large [4, 26]: 35 | Plant response rating, Crabgrass, Large [4, 27]: 30 | Plant response rating, Field Bindweed [5, 15]: 85 | Plant response rating, Field Bindweed [5, 16]: 65 | Plant response rating, Field Bindweed [5, 17]: 90 | Plant response rating, Field Bindweed [5, 19]: 95 | Plant response rating, Field Bindweed [5, 20]: 75 | Plant response rating, Field Bindweed [5, 21]: 35 | Plant response rating, Field Bindweed [5, 23]: 85 | Plant response rating, Field Bindweed [5, 22]: 95 | Plant response rating, Foxtail, Giant [6, 24]: 20 | Plant response rating, Foxtail, Giant [6, 25]: 5 | Plant response rating, Foxtail, Giant [6, 26]: 75 | Plant response rating, Foxtail, Giant [6, 27]: 90 | Plant response rating, Foxtail, Green [7, 24]: 40 | Plant response rating, Foxtail, Green [7, 25]: 0 | Plant response rating, Foxtail, Green [7, 26]: 65 | Plant response rating, Foxtail, Green [7, 27]: 70 | Plant response rating, Horseweed [8, 15]: 80 | Plant response rating, Horseweed [8, 16]: 100 | Plant response rating, Horseweed [8, 17]: 70 | Plant response rating, Horseweed [8, 19]: 85 | Plant response rating, Horseweed [8, 20]: 70 | Plant response rating, Horseweed [8, 21]: 100 | Plant response rating, Horseweed [8, 23]: 100 | Plant response rating, Horseweed [8, 22]: 100 | Plant response rating, Lambsquarters [9, 24]: 95 | Plant response rating, Lambsquarters [9, 25]: 70 | Plant response rating, Lambsquarters [9, 26]: 95 | Plant response rating, Lambsquarters [9, 27]: 100 | Plant response rating, Morningglory [10, 24]: 75 | Plant response rating, Morningglory [10, 28]: 90 | Plant response rating, Morningglory [10, 25]: 20 | Plant response rating, Morningglory [10, 27]: 95 | Plant response rating, Panicum, Fall [11, 15]: 15 | Plant response rating, Panicum, Fall [11, 16]: 35 | Plant response rating, Panicum, Fall [11, 17]: 30 | Plant response rating, Panicum, Fall [11, 18]: 65 | Plant response rating, Panicum, Fall [11, 19]: 50 | Plant response rating, Panicum, Fall [11, 20]: 0 | Plant response rating, Panicum, Fall [11, 21]: 0 | Plant response rating, Panicum, Fall [11, 22]: 98 | Plant response rating, Ragweed [12, 15]: 75 | Plant response rating, Ragweed [12, 16]: 65 | Plant response rating, Ragweed [12, 17]: 85 | Plant response rating, Ragweed [12, 18]: 70 | Plant response rating, Ragweed [12, 19]: 80 | Plant response rating, Ragweed [12, 20]: 65 | Plant response rating, Ragweed [12, 21]: 30 | Plant response rating, Ragweed [12, 22]: 98 | Plant response rating, Sandbur [13, 15]: 20 | Plant response rating, Sandbur [13, 16]: 0 | Plant response rating, Sandbur [13, 17]: 30 | Plant response rating, Sandbur [13, 18]: 65 | Plant response rating, Sandbur [13, 19]: 40 | Plant response rating, Sandbur [13, 20]: 15 | Plant response rating, Sandbur [13, 21]: 0 | Plant response rating, Sandbur [13, 22]: 75 | Plant response rating, Velvetleaf [14, 24]: 65 | Plant response rating, Velvetleaf [14, 28]: 80 | Plant response rating, Velvetleaf [14, 25]: 0 | Plant response rating, Velvetleaf [14, 27]: 100

From US10597388B2, “Pyridazinone herbicides” (FMC CORPORATION, priority 2014, dated 2020)
